86 compounds from ChEMBL document CHEMBL1157539, “Thousands of chemical starting points for antimalarial lead identification” (Nature, 2010) can be followed below.

This test has as its system Plasmodium falciparum. Description: GSK_TCMDC: Inhibition of Plasmodium falciparum 3D7 in whole erythrocytes, using parasite LDH activity as an index of growth. The format is functional, organism-based.

For the setting “Plasmodium falciparum, 3D7”, `O=C(Nc1ccc(OC2CCN(Cc3ccsc3)C2)c(Cl)c1)c1ccsc1` (stereo unspecified) yielded an XC50 of 1020 nM.
On the same count and under the same terms, the result for `CCC1N=C(N)N=C(N)N1OCCCOc1c(Cl)cc(Cl)cc1Cl` (stereo unspecified) reads 3.2 nM; that for `Nc1c(-c2ccc(C(=O)NCCNCc3ccccc3)cc2)cnn1-c1ccc(C(F)(F)F)cc1`, 1160 nM; that for `C=CCOC(=O)N1CCC(CNCc2cccc(-c3ccc(-c4nc5cccc(C)c5[nH]4)s3)c2)C1` (stereo unspecified), 248 nM.
`COc1ccc(CNC(=O)c2cnc3c(O)cccc3c2Nc2cccc(NC(=O)c3ccc(Cl)c(Cl)c3)c2)cc1` came in with an XC50 (Plasmodium falciparum, 3D7) of 604 nM.
Same read-out and setting: the result for `O=C(Nc1ccc(CN2CCOCC2)cc1)c1ccc(-c2cc(Cl)ccc2Cl)o1` reads 613 nM.
The same measure, in the same setting: in the case of `Cc1ccccc1C1CCN(C2CCC(NC(=O)/C=C/c3c[nH]c4ccccc34)CC2)CC1` (stereo unspecified) it was 810 nM.
The same measure, in the same setting: in the case of `CCCS(=O)(=O)N1CCC(CO)(Cc2ccccc2C(F)(F)F)CC1` it was 885 nM; in that of `CCCCCCCN(Cc1ccc(OC(C)(C)C(=O)OCC)cc1)C(=O)Nc1ccccc1OC(F)(F)F`, 966 nM; in that of `O=C(/C=C/c1ccc(Cl)c(Cl)c1)NCCCCCN1CCC(NC(=O)Nc2cc(Cl)cc(Cl)c2)CC1`, 722 nM.
In the case of `N#Cc1ccc(N(CCOc2ccc(Cl)cc2)Cc2ccccc2C(F)(F)F)cc1C(F)(F)F`, where the note is “Plasmodium falciparum, 3D7”, the XC50 stood at 656 nM.
Regarding `O=C(N[C@@H](CC1CCCCC1)C(=O)NCCc1ccc(Cl)c(Cl)c1)c1ccc(O)c(-c2ccc(Cl)c(Cl)c2)c1`, the XC50 (Plasmodium falciparum, 3D7) was determined as 156 nM.
The same measure, in the same setting: in the case of `O=c1[nH]ccc2nc(N[C@@H]3CCNC3)nc(Nc3cccc(S(=O)(=O)N4CCOCC4)c3)c12` it was 1230 nM; in that of `CCCCOc1cc2c(cc1OCC)C(C=Cc1ccc(Cl)cc1Cl)=NCC2`, 403 nM.
On the same count and under the same terms, in the case of `Cc1[nH]c(C)c(-c2ccc(/C=C/c3ccccn3)cc2)c(=O)c1Cl` it was 516 nM; in that of `CCN(CC)CCn1c(=N)n(CC(O)c2ccc(Cl)c(Cl)c2)c2ccccc21` (stereo unspecified), 785 nM; in that of `COc1cc(NC(=O)c2sc(-c3ccc(Cl)cc3)cc2NC(=O)N2CCCC2)ccc1OCCN1CCCC1`, 569 nM.
In turn, `Nc1c2c(nc3ccc(NC(=O)CCCCCCc4ccccc4)cc13)CCCC2` gave an XC50 (Plasmodium falciparum, 3D7) of 248 nM.
Under “Plasmodium falciparum, 3D7”, `Cc1ccccc1C1CCN(C2CCC(NC(=O)/C=C/c3cccc(C(F)(F)F)c3)CC2)CC1` (stereo unspecified) came in with an XC50 of 1520 nM.
Still for that read-out and setting: in the case of `O=C(Cc1ccc(NC(=O)c2ccc(O)c(-c3ccc(Cl)c(Cl)c3)c2)cc1)NCCc1ccc(Cl)c(Cl)c1` it was 717 nM; in that of `CCc1cc2c(=O)c(-c3nc(C)cs3)c([C@H](N)Cc3ccc(O)cc3)oc2cc1O`, 902 nM.
Still for that read-out and setting: the result for `CCOc1cc(C(=O)NCc2ccc(Cl)c(Cl)c2)ccc1-c1nc2cc(Cl)ccc2[nH]1` reads 804 nM; that for `CCCc1cc(NCc2ccncc2)nc(Nc2ccc(F)cc2)n1`, 1120 nM.
On the same count and under the same terms, the result for `COc1ccc(NC(=O)CCNc2cc(C)nc(NCc3ccccc3C)n2)cc1` reads 1070 nM; that for `O=c1[nH]ccc2nc(N[C@@H]3CCCNC3)nc(Nc3ccc(S(=O)(=O)N4CCOCC4)cc3)c12`, 742 nM.
For the setting “Plasmodium falciparum, 3D7”, `O=C(Nc1ccc(-c2ccc(-c3nc4ccccc4[nH]3)cc2)cc1)Nc1ccc(Cl)c(Cl)c1` registered an XC50 of 98.8 nM.
On the same count and under the same terms, in the case of `Cc1cc(Nc2ccc(C)c(Cl)c2)n2ncnc2n1` it was 552 nM; in that of `Cc1cccc2nc(-c3ccc(-c4cccc(C(=O)NCCc5cn(C)cn5)c4)s3)[nH]c12`, 877 nM.
On the same count and under the same terms, in the case of `O=C(/C=C/c1ccc(C(F)(F)F)cc1)NCCCCCN1CCCN(C(=O)Nc2ccc(F)c(Cl)c2)CC1` it was 368 nM; in that of `O=C(NC1CCN(CC2(c3ccc(Cl)cc3)CCC2)CC1)c1cc[nH]n1`, 421 nM; in that of `COc1ccc(Nc2nc(NN=Cc3cc(Br)c(O)cc3O)nc(Nc3ccc([N+](=O)[O-])cc3)n2)cc1`, 896 nM.
With `O=[N+]([O-])c1cccc(CNCC2CCN(Cc3ccc(C(F)(F)F)cc3)CC2)c1`, the XC50 (Plasmodium falciparum, 3D7) is 245 nM.
Still for that read-out and setting: in the case of `COc1ccc2c(ccc3c2ncc2c(=O)n(-c4ccccc4)[nH]c23)c1` it was 520 nM; in that of `Cc1cc(N[C@@H](Cc2ccccc2)C(=O)NCCOc2ccccc2)nc(NCC2CCCCC2)n1`, 854 nM.
Consider `COc1ccc(N(c2nc(-c3cc(Cl)ccc3Cl)cs2)C2CCNCC2)cc1`, for which the XC50 (Plasmodium falciparum, 3D7) turned out to be 1090 nM.
On the same count and under the same terms, in the case of `CN(CCCCNC(=O)/C=C/c1ccccc1)C1CC2(CCN(C(=O)OC(C)(C)C)CC2)c2ccccc21` (stereo unspecified) it was 1140 nM.
Still for that read-out and setting: the result for `O=C(Nc1ccc(-c2cccc(-c3nc4cc(C(F)(F)F)ccc4[nH]3)c2)cc1)Nc1ccc(Cl)c(Cl)c1` reads 746 nM; that for `CCCCCCCCc1c(C)[nH]c(C)c(Cl)c1=O`, 229 nM.
With `CC[C@H]1CN2CC[C@H]1C[C@H]2[C@H](O)c1cc(Cl)nc2ccc(OC)cc12`, where the note is “Plasmodium falciparum, 3D7”, the XC50 was 578 nM.
Still for that read-out and setting: in the case of `O=C(Nc1ccc(Oc2ccccc2)cc1)N(Cc1ccc(-c2cccc(CN3CCNCC3)c2)cc1)C1CCN(Cc2ccccc2)CC1` it was 881 nM; in that of `COc1ccc(CNC(=O)C2Cc3ccccc3CN2Cc2ccc3ccccc3c2)cc1` (stereo unspecified), 1100 nM.
The compound `Oc1ccc(CCNc2nc(NCCCOc3ccccc3-c3ccncc3)nc(N3CCNCC3)n2)cc1` displayed an XC50 (Plasmodium falciparum, 3D7) of 1110 nM.
Take `Cc1ccc(CC(C)NC[C@H](O)c2cccc(Cl)c2)cc1` (stereo partly specified): the XC50 was 927 nM.
In turn, `CC1(C)NC(N)=NC(=N)N1OCCCc1cccc(C(F)(F)F)c1` displayed an XC50 (Plasmodium falciparum, 3D7) of 3.2 nM.
On the same count and under the same terms, the result for `COc1ccc(-c2cc3ncn(CC(=O)N4CCN(c5cccc(OC)c5)CC4)c(=O)c3s2)cc1` reads 1060 nM; that for `Cc1ccc(S(=O)(=O)NC2CCN(c3ccnc4cc(Cl)ccc34)C2)cc1` (stereo unspecified), 621 nM; that for `O=C(NC1CCN(Cc2cccc(C(F)(F)F)c2)CC1)c1ccc(-c2cccc(Cl)c2)s1`, 1130 nM.
Still for that read-out and setting: in the case of `CN1CCC(Oc2ccc(Nc3nccc(NCC(O)c4ccccc4)n3)cc2Cl)CC1` (stereo unspecified) it was 785 nM; in that of `Fc1ccc2[nH]c(-c3ccc(-c4cccc(CN5CCCCC5)c4)cc3)nc2c1`, 267 nM; in that of `CCCCn1c(Sc2ccc(C#N)c([N+](=O)[O-])c2)nnc1-c1ccc(OC)cc1`, 1030 nM.
Still for that read-out and setting: in the case of `O=C(/C=C/c1ccc(Cl)c(Cl)c1)NCCCCCN1CCCN(C(=O)Nc2ccc(Br)cc2)CC1` it was 777 nM; in that of `CCCCCC(C)C(C)c1cc(OC(N)=O)c2c(c1)OC(C)(C)C=C2c1ccncc1` (stereo unspecified), 895 nM.
The compound `COc1ccc(OCCCN2CCN(CC(c3ccc(F)cc3)N3CCN(C(C)C)CC3)CC2)c2ccccc12` (stereo unspecified) displayed an XC50 (Plasmodium falciparum, 3D7) of 650 nM.
On the same count and under the same terms, in the case of `CC(C)C[C@@H](NC(=O)NC1CCC(CCN2C3CCC2CC(OC(=O)C(CO)c2ccccc2)C3)CC1)C(O)(c1ccccc1)c1ccccc1` (stereo partly specified) it was 1070 nM; in that of `O=C(c1ccc(Cl)cc1)C1CCN(CCCOc2ccc3c(c2)CCNCC3)CC1`, 1150 nM.
On the same count and under the same terms, in the case of `CCCc1c(C(=O)NC2CCC(CN3CCC(c4c[nH]c5ccccc45)CC3)CC2)cnn1-c1ccc(Cl)cc1` (stereo unspecified) it was 763 nM; in that of `COc1cc2ncnc(Nc3ccc(Br)c(Cl)c3)c2cc1OC`, 718 nM.
The same measure, in the same setting: the result for `COCCn1c(-c2nc(-c3ccc(F)cc3)cnc2N)nc2ccccc21` reads 872 nM.
Take `Oc1ccccc1CCNCC1CCc2ccccc2C1` (stereo unspecified): the XC50 (Plasmodium falciparum, 3D7) was 689 nM.
In turn, `CCOc1ccc(NC(=O)c2ccc(NCCCN3CC(C)CC(C)C3)c([N+](=O)[O-])c2)cc1` (stereo unspecified) registered an XC50 (Plasmodium falciparum, 3D7) of 705 nM.
The same measure, in the same setting: the result for `CC(=O)Nc1cccc(C(=O)Nc2cccc(-c3csc(-c4nc5ccccc5[nH]4)c3)c2)c1` reads 181 nM; that for `CC(C)N1CCN(C(CN2CCN(CCCOc3ccc4ccccc4c3)CC2)c2ccc(F)cc2)CC1` (stereo unspecified), 581 nM.
The same measure, in the same setting: the result for `Cc1cc(C(F)(F)F)n2nc(C(=O)N(C)Cc3cncn3Cc3ccc(F)cc3)cc2n1` reads 832 nM; that for `N#Cc1ccc(-c2ccc(C(=O)Nc3ccc4c(c3)CCN(C3CCC3)CC4)nc2)cn1`, 1160 nM; that for `CO/C(=C\C=C\c1cc2cc(Cl)c(Cl)cc2[nH]1)C(=O)NCCCN1CCN(c2cccc(O)c2)CC1`, 579 nM.
The same measure, in the same setting: the result for `CCCc1cc(OCCCOc2ccccc2)ccc1OCCCON1C(=N)N=C(N)NC1(C)C` reads 3.2 nM.
Turning to `Nc1cccc(CNCc2cccc(-c3ccc(-c4nc5ccccc5[nH]4)s3)c2)c1`, the XC50 (Plasmodium falciparum, 3D7) was determined as 604 nM.
Same read-out and setting: the result for `COc1cccc2c(N/N=C/c3ccccc3[N+](=O)[O-])ccnc12` reads 588 nM; that for `N#CCCN1CCN(Cc2ccc(-c3cccc(-c4nc5cc(F)ccc5[nH]4)c3)cc2)CC1`, 972 nM; that for `CCCCCCCN1CC[C@@H](CCCc2ccnc3ccc(OCC4CCCNC4)cc23)[C@@H](CC)C1` (stereo partly specified), 625 nM.
`CC(C)C[C@H](NC(=O)c1cc(-c2ccc(F)cc2)no1)C(=O)O.CC(C)C[C@H](NC(=O)c1conc1-c1ccc(F)cc1)C(=O)O`: the XC50 (Plasmodium falciparum, 3D7) is 979 nM.
Same read-out and setting: the result for `Nc1nc(N)c2c(Oc3cc(Cl)c(Cl)c(Cl)c3)cccc2n1` reads 804 nM; that for `CC(C)c1ccc(OCC(O)CN(C)C(C)C(O)c2ccccc2)c(Br)c1` (stereo unspecified), 815 nM; that for `Cc1cnc(N2CCN(CCCN3CCCC3)CC2)nc1Oc1ccc(-n2ccnc2)cc1`, 898 nM.
Compound `Cc1cc2nc(-c3ccc(/C=C/C(=O)NCc4ccc(Cl)c(Cl)c4)cc3)[nH]c2cc1C` displayed an XC50 (Plasmodium falciparum, 3D7) of 824 nM.
The compound `Cc1ccc2c(-c3ccc([N+](=O)[O-])o3)cc(C)nc2c1` showed an XC50 (Plasmodium falciparum, 3D7) of 43.7 nM.
Consider `COc1ccc(CC(=O)NC2CCN(c3ccnc4cc(Cl)ccc34)C2)cc1` (stereo unspecified), for which, under “Plasmodium falciparum, 3D7”, the XC50 is 241 nM.
Same read-out and setting: the result for `CC(C)NCc1cccc(-c2cccc(NC(=O)c3cccc(C#N)c3)c2)c1` reads 823 nM; that for `O=[N+]([O-])c1cccc(CNC2CCN(Cc3ccc4ccccc4c3)CC2)c1`, 764 nM.
For the setting “Plasmodium falciparum, 3D7”, `CCOc1cc(C(=O)NC2CCN(Cc3ccccc3)CC2)ccc1-c1nc2cc(Cl)ccc2[nH]1` came in with an XC50 of 430 nM.
In turn, `CC(CN1CCN(C)CC1)C(=O)Nc1cccc(-c2ccc(-c3nc4cc(F)ccc4[nH]3)cc2)c1` (stereo unspecified) had an XC50 (Plasmodium falciparum, 3D7) of 807 nM.
The same measure, in the same setting: the result for `COc1ccc2ncc(F)c([C@@H](O)CN3CCC(NCc4ccc5c(c4)NCCS5)CC3)c2n1` reads 504 nM; that for `CN1CCN(c2ccnc3ccc(NC(=O)Nc4ccc(Br)cc4)cc23)CC1`, 92.5 nM; that for `CCN(CC)CCNC(=O)c1ccc(NC(=O)c2cc3c(C)nn(-c4ccc(Cl)cc4)c3s2)cc1`, 253 nM.
For the setting “Plasmodium falciparum, 3D7”, `COc1ccc(C=C2SC(=O)N=C2Nc2ccccc2)c(OC)c1` gave an XC50 of 470 nM.
Same read-out and setting: in the case of `Cc1cc(Nc2ccc(O)cc2)nc2cc(O)ccc12` it was 756 nM.
